{"source": "paper PMC7156458", "about": "“Synthetic biology based construction of biological activity-related library of fungal decalin-containing diterpenoid pyrones” (Nature Communications, 2020)", "key": {"[1]": {"test_system": "MCF-7 cells", "assay": "mammosphere formation assay", "assay_type": "cell-based, human", "details": "MCF-7, 5 μM, 7 days"}, "[2]": {"assay": "cytotoxicity in Drosophila DL1 cells", "assay_type": "cell-based", "details": "Drosophila, DL1 cells (embryonic macrophage-derived), DL1 cells", "description": "(§1) We screened the DDPs on the Drosophila assay system for cytotoxicity, inhibitory activity of innate immune signalling and insecticidal activity. The cytotoxicity of the DDPs was evaluated using two cell lines, embryonic macrophage-derived DL1 cells[58]–[60] and larval blood cell-derived l(2)mbn cells, and their IC50 values are listed in Supplementary Table 23."}, "[3]": {"test_system": "DL1 cells", "assay": "cytotoxicity in Drosophila DL1 cells", "assay_type": "cell-based", "details": "DL1 cells; for IC50: Drosophila melanogaster, cytotoxicity", "description": "as §1"}, "[4]": {"assay": "cytotoxicity in Drosophila l(2)mbn cells", "assay_type": "cell-based", "details": "Drosophila, l(2)mbn cells (larval blood cell-derived)", "description": "as §1"}, "[5]": {"test_system": "l(2)mbn cells", "assay": "cytotoxicity in Drosophila l(2)mbn cells", "assay_type": "cell-based", "details": "for Luminescence Raw1: replicate 1; for Luminescence Raw2: replicate 2; for IC50: Drosophila melanogaster, cytotoxicity", "description": "as §1"}, "[6]": {"test_system": "human immunodeficiency virus-1 (HIV-1)", "assay": "anti-HIV MAGI assay", "assay_type": "cell-based", "details": "Human immunodeficiency virus 1, MAGI, anti-HIV, MAGI assay; read-out: EC50", "from_the_text": "(§2) We examined the inhibitory activities of DDPs against various species of bacteria (both gram-negative and gram-positive bacteria), fungi and viruses. […] In contrast, preliminary screening of the DDPs for anti-viral agents with hepatitis B virus (HBV), measles virus (MV), Epstein-Barr virus (EBV), herpes simplex virus (HSV) and human immunodeficiency virus-1 (HIV-1) indicated their selective inhibition of HIV."}, "[7]": {"test_system": "MAGI cells", "assay": "cytotoxicity in the anti-HIV assay (CC50)", "assay_type": "cell-based"}, "[8]": {"test_system": "hepatitis B virus (HBV), measles virus (MV), Epstein-Barr virus (EBV), herpes simplex virus (HSV)", "assay": "preliminary anti-viral screening (other viruses)", "assay_type": "cell-based", "from_the_text": "as §2"}, "[9]": {"details": "replicate 1, relative to DMSO 1%, read-out: % viability, viability 1"}, "[10]": {"details": "replicate 2, relative to DMSO 1%, read-out: % viability, viability 2"}, "[11]": {"details": "average of two replicates, read-out: IC50 Average"}, "[12]": {"details": "replicate 1, read-out: IC50 (1)"}, "[13]": {"details": "replicate 2, read-out: IC50 (2)"}}, "note": "“And” between values parts separate entries of the source, which are not always exact repeats. Identical values can stand only once. Like-named read-outs stand apart in the source and are kept apart here."}
{"smiles": "C=C1CCC2C3(C)CC(C=C(C)C)OC3CCC2(C)C1Cc1c(OC)oc(C)c(C)c1=O", "note": "(stereo not drawn) [Compound 23]", "values": [{"measurement": "MFE (%) ave", "setting": "[1]; mean of 3, control 0.87", "result": 0.66, "unit": "%"}, {"measurement": "MFE (control = 1) ave", "setting": "[1]; relative to control = 1", "result": 0.76}, {"measurement": "MFE (%)", "setting": "[1]; single replicates", "result": "0.60% and 0.72% and 0.66%"}, {"measurement": "viability at 0.04 µM", "setting": "[2]; [9]", "result": 80.6, "unit": "%"}, {"measurement": "viability at 0.04 µM", "setting": "[2]; [10]", "result": 110, "unit": "%"}, {"measurement": "viability at 0.2 µM", "setting": "[2]; [9]", "result": 21.3, "unit": "%"}, {"measurement": "viability at 0.2 µM", "setting": "[2]; [10]", "result": 27.7, "unit": "%"}, {"measurement": "viability at 1 µM", "setting": "[2]; [9]", "result": 7.72, "unit": "%"}, {"measurement": "viability at 1 µM", "setting": "[2]; [10]", "result": 9.91, "unit": "%"}, {"measurement": "viability at 4 µM", "setting": "[2]; [9]", "result": 8.03, "unit": "%"}, {"measurement": "viability at 4 µM", "setting": "[2]; [10]", "result": 7.75, "unit": "%"}, {"measurement": "viability at 10 µM", "setting": "[2]; [9]", "result": 4.94, "unit": "%"}, {"measurement": "viability at 10 µM", "setting": "[2]; [10]", "result": 5.43, "unit": "%"}, {"measurement": "viability at 20 µM", "setting": "[2]; [9]", "result": 8.44, "unit": "%"}, {"measurement": "viability at 20 µM", "setting": "[2]; [10]", "result": 8.21, "unit": "%"}, {"measurement": "Luminescence Raw1", "setting": "[3]; 0.04 µM, replicate 1", "result": 1660895}, {"measurement": "Luminescence Raw2", "setting": "[3]; 0.04 µM, replicate 2", "result": 2275454}, {"measurement": "Luminescence Raw1", "setting": "[3]; 0.2 µM, replicate 1", "result": 438070}, {"measurement": "Luminescence Raw2", "setting": "[3]; 0.2 µM, replicate 2", "result": 571485}, {"measurement": "Luminescence Raw1", "setting": "[3]; 1 µM, replicate 1", "result": 158989}, {"measurement": "Luminescence Raw2", "setting": "[3]; 1 µM, replicate 2", "result": 204060}, {"measurement": "Luminescence Raw1", "setting": "[3]; 4 µM, replicate 1", "result": 165479}, {"measurement": "Luminescence Raw2", "setting": "[3]; 4 µM, replicate 2", "result": 159710}, {"measurement": "Luminescence Raw1", "setting": "[3]; 10 µM, replicate 1", "result": 101660}, {"measurement": "Luminescence Raw2", "setting": "[3]; 10 µM, replicate 2", "result": 111756}, {"measurement": "Luminescence Raw1", "setting": "[3]; 20 µM, replicate 1", "result": 173772}, {"measurement": "Luminescence Raw2", "setting": "[3]; 20 µM, replicate 2", "result": 169085}, {"measurement": "IC50", "setting": "[3]; [11]", "result": 130, "unit": "nM"}, {"measurement": "IC50", "setting": "[3]; average±SEM, read-out: IC50", "result": "130 ± 40", "unit": "nM"}, {"measurement": "IC50", "setting": "[3]; [12]", "result": 94, "unit": "nM"}, {"measurement": "IC50", "setting": "[3]; [13]", "result": 167, "unit": "nM"}, {"measurement": "viability at 0.04 µM", "setting": "[4]; [9]", "result": 122, "unit": "%"}, {"measurement": "viability at 0.04 µM", "setting": "[4]; [10]", "result": 135, "unit": "%"}, {"measurement": "viability at 0.2 µM", "setting": "[4]; [9]", "result": 126, "unit": "%"}, {"measurement": "viability at 0.2 µM", "setting": "[4]; [10]", "result": 141, "unit": "%"}, {"measurement": "viability at 1 µM", "setting": "[4]; [9]", "result": 44.7, "unit": "%"}, {"measurement": "viability at 1 µM", "setting": "[4]; [10]", "result": 72.6, "unit": "%"}, {"measurement": "viability at 4 µM", "setting": "[4]; [9]", "result": 8.9, "unit": "%"}, {"measurement": "viability at 4 µM", "setting": "[4]; [10]", "result": 9.14, "unit": "%"}, {"measurement": "viability at 10 µM", "setting": "[4]; [9]", "result": 7.01, "unit": "%"}, {"measurement": "viability at 10 µM", "setting": "[4]; [10]", "result": 6.89, "unit": "%"}, {"measurement": "viability at 20 µM", "setting": "[4]; [9]", "result": 6.91, "unit": "%"}, {"measurement": "viability at 20 µM", "setting": "[4]; [10]", "result": 6.4, "unit": "%"}, {"measurement": "Luminescence Raw1", "setting": "[5]; 0.04 µM", "result": 3121216}, {"measurement": "Luminescence Raw2", "setting": "[5]; 0.04 µM", "result": 3467512}, {"measurement": "Luminescence Raw1", "setting": "[5]; 0.2 µM", "result": 3228350}, {"measurement": "Luminescence Raw2", "setting": "[5]; 0.2 µM", "result": 3607479}, {"measurement": "Luminescence Raw1", "setting": "[5]; 1 µM", "result": 1147296}, {"measurement": "Luminescence Raw2", "setting": "[5]; 1 µM", "result": 1863873}, {"measurement": "Luminescence Raw1", "setting": "[5]; 4 µM", "result": 228513}, {"measurement": "Luminescence Raw2", "setting": "[5]; 4 µM", "result": 234642}, {"measurement": "Luminescence Raw1", "setting": "[5]; 10 µM", "result": 179837}, {"measurement": "Luminescence Raw2", "setting": "[5]; 10 µM", "result": 176952}, {"measurement": "Luminescence Raw1", "setting": "[5]; 20 µM", "result": 177313}, {"measurement": "Luminescence Raw2", "setting": "[5]; 20 µM", "result": 164332}, {"measurement": "IC50", "setting": "[5]; [11]", "result": 1580, "unit": "nM"}, {"measurement": "IC50", "setting": "[5]; average±SEM, read-out: IC50", "result": "1580 ± 350", "unit": "nM"}, {"measurement": "IC50", "setting": "[5]; [12]", "result": 1230, "unit": "nM"}, {"measurement": "IC50", "setting": "[5]; [13]", "result": 1920, "unit": "nM"}, {"measurement": "EC50", "setting": "[6]", "result": "< 200", "unit": "nM"}, {"measurement": "Cytotoxicity Avg.", "setting": "[7]; average of numeric determinations", "result": 5.617, "unit": "µM"}, {"measurement": "Cytotoxicity", "setting": "[7]; single determinations", "result": "5.032 µM and 7.537 µM and 4.281 µM"}, {"measurement": "effect on other viruses", "setting": "[8]", "result": "without affecting other viruses"}]}
